Results taken from US20240336608A1, “IL4I1 INHIBITORS AND METHODS OF USE” (Merck Sharp & Dohme LLC, priority 2023, published 2024).

Target: T1, recombinant IL4I1 (Homo sapiens, UniProt Q96RQ9)
T1 construct: purchased R&D Systems 5684-AO-020
T1 sequence (Q96RQ9 22-567): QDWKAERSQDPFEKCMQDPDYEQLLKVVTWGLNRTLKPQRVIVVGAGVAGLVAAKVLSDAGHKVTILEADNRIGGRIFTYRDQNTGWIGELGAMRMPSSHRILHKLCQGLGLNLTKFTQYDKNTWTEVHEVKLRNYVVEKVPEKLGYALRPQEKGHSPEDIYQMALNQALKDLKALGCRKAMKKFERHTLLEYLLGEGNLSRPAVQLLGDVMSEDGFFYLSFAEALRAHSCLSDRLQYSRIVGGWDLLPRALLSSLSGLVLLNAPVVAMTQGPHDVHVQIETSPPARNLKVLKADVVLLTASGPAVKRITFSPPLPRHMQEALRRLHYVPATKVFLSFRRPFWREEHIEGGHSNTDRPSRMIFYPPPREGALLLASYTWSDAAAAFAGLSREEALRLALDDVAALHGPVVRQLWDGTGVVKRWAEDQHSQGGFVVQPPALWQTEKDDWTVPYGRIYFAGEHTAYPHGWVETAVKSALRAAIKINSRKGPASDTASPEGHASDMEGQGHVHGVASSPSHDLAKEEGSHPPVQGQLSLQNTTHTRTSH
Assay: IL4I1 Enzymatic Assay (Amplex Red/HRP coupled detection of H2O2, fluorescence)
Type: biochemical
Settings: 1 nM recombinant IL4I1; four-hour pre-incubation with compound; 1 mM each Phe, Tyr, Trp; ten-point titration
Description: Interleukin 4 inducible protein 1 (IL4I1) is an L-amino oxidase that catalyzes the oxidation of aromatic residues (Phe, Trp and Tyr): L-amino acid+H2O+O2→2-oxo acid+NH3+H2O2. Equal molar of H2O2 and the corresponding alpha-ketoacid are produced when IL4I1 and substrate are added. In this assay, the hydrogen peroxide generated by IL4I1 is then detected through a coupled reaction with Amplex Red (10-acetyl-3,7-dihydroxyphenoxazine) and […] (HRP) to produce Resorufin product that could be detected in the form of fluorescence signals. The assessment of the inhibitory effect of small molecules (EC50) on IL4I1 is measured by the effectiveness of the compounds to inhibit the production of H202.
Using this assay, the potency (EC50) of each compound was determined from a ten-point (1:3 serial dilution) titration curve using the following outlined procedure. To each well of a black flat-bottom Greiner (Cat #781076) 384 well-plate, 125 nL of compound (0.5% DMSO in final assay volume of 25 μL) was dispensed, followed by the addition of 12.5 μL of 1× assay buffer (50 mM Hepes 7.0 and 0.005% Tween20 (Sigma, Cat #P8341; low peroxide grade)) containing 2 nM of recombinant IL4I1 (R&D Systems, Cat #5684-AO-020). Plates were placed in an ambient temperature humidified chamber for a four-hour pre-incubation with compound. Subsequently, each reaction was initiated by the addition of 12.5 μL 1× assay buffer containing 2 mM of each aromatic amino acids (Phe/Tyr/Trp), 0.1 mM Amplex Red and 2 U/mL of HRP. The final reaction in each well of 25 μL consists of 1 nM of IL4I1, 1 mM of each residue (Phe, Tyr and Trp), 0.05 mM Amplex Red and 1 U/mL of HRP. It should be noted that the concentrations of Amplex Red and HRP used here are in excess such that the conversion of H2O2 to Resorufin product occurs instantaneously and non-rate limiting. Reactions were allowed to proceed for 120 minutes followed by fluorescence readout on a Spectramax with the following set parameters: 544 nm excitation/590 nm emission, 570 nm cutoff (EnVision is an alternative reader). Dose-response curves were generated by plotting percent effect (% inhibition; Y-axis) vs. Log10 compound concentrations (X-axis). EC50 values were calculated using a non-linear regression, four-parameters sigmoidal dose-response model and are shown in Table 16.

SMILES | EC50 [µM]
Cc1ccc(-n2cc(C(=O)NCc3cc(-c4ccccc4Cl)no3)nn2)c(C)n1 [Example 220, N-{[3-(2-chlorophenyl)-1,2-oxazol-5-yl]methyl}-1-(2,6-dimethylpyridin-3-yl)-1H-1,2,3-triazole-4-carboxamide] | 0.195
Cc1ccc(-n2cc(C(=O)NC(C)c3nnc(-c4ccccc4)s3)nn2)c(C)n1 (single isomer, unassigned) [Example 263, 1-(2,6-dimethylpyridin-3-yl)-N-(1-(5-phenyl-1,3,4-thiadiazol-2-yl)ethyl)-1H-1,2,3-triazole-4-carboxamide] | 0.033
O=C(NCc1cc(-c2ccncc2)no1)c1cn(C2CC2)nn1 [Example 284, 1-cyclopropyl-N-((3-(pyridin-4-yl)isoxazol-5-yl)methyl)-1H-1,2,3-triazole-4-carboxamide] | 0.074
COCCCn1cc(C(=O)NCc2nnc(-c3ccccc3)s2)nn1 [Example 96, 1-(3-methoxypropyl)-N-((5-phenyl-1,3,4-thiadiazol-2-yl)methyl)-1H-1,2,3-triazole-4-carboxamide] | 0.016
CC(O)c1cc(C(=O)NCc2nnc(-c3ccccc3)s2)on1 (single isomer, unassigned) [Example 329, 3-(1-hydroxyethyl)-N-((5-phenyl-1,3,4-thiadiazol-2-yl)methyl)isoxazole-5-carboxamide] | 0.149
COC(=O)C(C)(C)n1cc(C(=O)NCc2nnc(-c3ccccc3)s2)nn1 [Example 255, methyl 2-methyl-2-(4-(((5-phenyl-1,3,4-thiadiazol-2-yl)methyl)carbamoyl)-1H-1,2,3-triazol-1-yl)propanoate] | 0.045
Cc1ccc(-n2cc(C(=O)NCc3nnc(C4CCCC4)s3)nn2)c(C)n1 [Example 325, N-((5-cyclopentyl-1,3,4-thiadiazol-2-yl)methyl)-1-(2,6-dimethylpyridin-3-yl)-1H-1,2,3-triazole-4-carboxamide] | 0.274
O=C(NCc1nnc(-c2ccccc2)s1)c1cn([C@H]2CO[C@H]3[C@@H]2OC[C@H]3O)nn1 [Example 5, 1-[(3S,3aR,6R,6aR)-6-hydroxy-2,3,3a,5,6,6a-hexahydrofuro[3,2-b]furan-3-yl]-N-[(5-phenyl-1,3,4-thiadiazol-2-yl)methyl]triazole-4-carboxamide] | 0.164

Now from value to compound:

EC50 [µM] | SMILES
0.007 | O=C(NCc1nnc(-c2ccccc2)s1)c1cn(CCCO)nn1 [Example 194, 1-(3-hydroxypropyl)-N-((5-phenyl-1,3,4-thiadiazol-2-yl)methyl)-1H-1,2,3-triazole-4-carboxamide]
0.058 | Cc1ccc(-n2cc(C(=O)NCc3cc(-c4cccc(F)c4)no3)nn2)c(C)n1 [Example 223, 1-(2,6-dimethylpyridin-3-yl)-N-{[3-(3-fluorophenyl)-1,2-oxazol-5-yl]methyl}-1H-1,2,3-triazole-4-carboxamide]
0.003 | CCOc1ccsc1C(=O)NCc1nnc(-c2ccccc2)s1 [Example 8, 3-ethoxy-N-[(5-phenyl-1,3,4-thiadiazol-2-yl)methyl]thiophene-2-carboxamide]
0.009 | C[C@@H](CO)n1cc(C(=O)NCc2nnc(-c3ccccc3)s2)nn1 [Example 166, (S)-1-(1-hydroxypropan-2-yl)-N-((5-phenyl-1,3,4-thiadiazol-2-yl)methyl)-1H-1,2,3-triazole-4-carboxamide]
0.029 | O=C(NCc1nnc(-c2ccccc2)s1)c1cn(CC2(O)CC2)nn1 [Example 136, 1-((1-hydroxycyclopropyl)methyl)-N-((5-phenyl-1,3,4-thiadiazol-2-yl)methyl)-1H-1,2,3-triazole-4-carboxamide]
0.34 | Cc1c(C(=O)NCc2nnc(-c3ccccc3)s2)oc2cccc(O)c12 [Example 20, 4-hydroxy-3-methyl-N-[(5-phenyl-1,3,4-thiadiazol-2-yl)methyl]benzofuran-2-carboxamide]
0.711 | CC1(n2cc(C(=O)NCc3nnc(-c4ccccc4)s3)nn2)CC(F)(F)C1 [Example 208, 1-(3,3-difluoro-1-methylcyclobutyl)-N-((5-phenyl-1,3,4-thiadiazol-2-yl)methyl)-1H-1,2,3-triazole-4-carboxamide]
